Test results as given in patent US4946844A, “Optically active benzoquinolizine compounds, process for preparing same, and antibacterial preparation containing same as active ingredient” (Tokyo Tanabe Co., Ltd., priority 1987, dated 1990).

Tests used:
[1] = Solubility in water; format: physicochemical
Experimental: The solubilities of the present compound (which had been prepared in Example 1) and its racemate in water were determined.

[2] = test system: Bacillus subtilis ATCC 6633; assay: In vitro antibacterial activity (minimum inhibitory concentration); format: cell-based; details: 37° C.; for Minimum inhibitory concentration: 20 hours, hydrochloride monohydrate
Experimental: (§1) The in vitro antimicrobial activity of a typical compound in accordance with the present invention (hereinafter referred to as the present compound) was evaluated in terms of minimum inhibitory concentrations for various Gram-positive and Gram-negative bacteria. The Gram-positive bacteria used as test microorganisms included Bacillus subtilis, Staphylococcus aureus, Staphylococcus epidermidis and Streptococcus pyogenes, and the Gram-negative bacteria used as test microorganisms included Escherichia coli, Enterobacter cloacae, Klebsiella pneumoniae, Proteus vulgaris, Pseudomonas aeruginosa, Serratia marcescens, Salmonella enteritidis and Morganella morganii. The minimum inhibitory concentrations (for the test microorganisms cultured at 37° C. for 20 hours) were determined according to the standard method prescribed by the Japanese Chemotherapeutic Society (Journal of the Japanese Chemotherapeutic Society, Vol. 29, No. 1, p. 76, 1981). As the present compound, there was used (+)-9-fluoro-5-methyl-8-(4-methyl-1-piperazinyl)-6,7-dihydro-1,7-dioxo1H,5H-benzo[ij]quinolizine-2-carboxylic acid hydrochloride monohydrate which had been prepared in Example 1 described later. For purposes of comparison, control compounds were evaluated in the same manner as described above. These control compounds comprised the optically active (-)-isomer of the aforesaid compound (which had been prepared in Reference Example described later) and the racemate thereof.

[3] = test system: Enterobacter cloacae 963; assay: as above; format: cell-based; details: 37° C.; for Minimum inhibitory concentration: 20 hours, hydrochloride monohydrate
Experimental: as §1

[4] = test system: Streptococcus pyogenes ATCC 19615; assay: as above; format: cell-based; details: 37° C.; for Minimum inhibitory concentration: 20 hours, hydrochloride monohydrate
Experimental: as §1

[5] = test system: Proteus vulgaris ATCC 13315; assay: as above; format: cell-based; details: 37° C.; for Minimum inhibitory concentration: 20 hours, hydrochloride monohydrate
Experimental: as §1

[6] = test system: Klebsiella pneumoniae PCI 602; assay: as above; format: cell-based; details: 37° C.; for Minimum inhibitory concentration: 20 hours, hydrochloride monohydrate
Experimental: as §1

[7] = test system: Staphylococcus aureus FDA 209P JC-1; assay: as above; format: cell-based; details: 37° C.; for Minimum inhibitory concentration: 20 hours, hydrochloride monohydrate
Experimental: as §1

[8] = test system: Pseudomonas aeruginosa PAO 1; assay: as above; format: cell-based; details: 37° C.; for Minimum inhibitory concentration: 20 hours, hydrochloride monohydrate
Experimental: as §1

[9] = test system: Escherichia coli NIHJ JC-2; assay: as above; format: cell-based; details: 37° C.; for Minimum inhibitory concentration: 20 hours, hydrochloride monohydrate
Experimental: as §1

[10] = test system: Serratia marcescens IAM 1184; assay: as above; format: cell-based; details: 37° C.; for Minimum inhibitory concentration: 20 hours, hydrochloride monohydrate
Experimental: as §1

[11] = test system: Morganella morganii IFO 3848; assay: as above; format: cell-based; details: 37° C.; for Minimum inhibitory concentration: 20 hours, hydrochloride monohydrate
Experimental: as §1

[12] = test system: Salmonella enteritidis G 14; assay: as above; format: cell-based; details: 37° C.; for Minimum inhibitory concentration: 20 hours, hydrochloride monohydrate
Experimental: as §1

[13] = test system: Staphylococcus epidermidis IAM 1296; assay: as above; format: cell-based; details: 37° C.; for Minimum inhibitory concentration: 20 hours, hydrochloride monohydrate
Experimental: as §1

[14] = test system: various Gram-positive and Gram-negative bacteria; assay: In vitro antibacterial activity over all test microorganisms (comparison of potency); format: cell-based; details: versus racemate
Experimental: as §1, with “These control compounds comprised the optically active (-)-isomer of the aforesaid compound (which had been prepared in Reference Example described later) and the racemate thereof.” left out

Row | Compound | solubility [1] [mg/mL] | Minimum inhibitory concentration [2] [µg/mL] | Minimum inhibitory concentration [3] [µg/mL] | Minimum inhibitory concentration [4] [µg/mL] | Minimum inhibitory concentration [5] [µg/mL] | Minimum inhibitory concentration [6] [µg/mL] | Minimum inhibitory concentration [7] [µg/mL] | Minimum inhibitory concentration [8] [µg/mL] | Minimum inhibitory concentration [9] [µg/mL] | Minimum inhibitory concentration [10] [µg/mL] | Minimum inhibitory concentration [11] [µg/mL] | Minimum inhibitory concentration [12] [µg/mL] | Minimum inhibitory concentration [13] [µg/mL] | further results
1 | CC1CC(=O)c2c(N3CCN(C)CC3)c(F)cc3c(=O)c(C(=O)O)cn1c23.Cl.O (racemic) [Racemate, (±)-9-fluoro-5-methyl-8-(4-methyl-1-piperazinyl)-6,7-dihydro-1,7-dioxo-1H,5H-benzo[ij]quinolizine-2-carboxylic acid hydrochloride monohydrate] | ~7 |  |  |  |  |  |  |  |  |  |  |  |  | MIC ([2]; Bacillus subtilis, ATCC6633, 20 h): 0.1 µg/mL; MIC ([3]; Enterobacter cloacae, 963, 20 h): 0.2 µg/mL; MIC ([4]; Streptococcus pyogenes, ATCC19615, 20 h): 6.25 µg/mL; MIC ([5]; Proteus vulgaris, ATCC13315, 20 h): 0.2 µg/mL; MIC ([6]; Klebsiella pneumoniae, PCI602, 20 h): 0.1 µg/mL; MIC ([7]; Staphylococcus aureus, FDA209P, 20 h): 0.39 µg/mL; MIC ([8]; Pseudomonas aeruginosa, PAO1, 20 h): 1.56 µg/mL; MIC ([9]; Escherichia coli, NIHJJC2, 20 h): 0.2 µg/mL; MIC ([10]; Serratia marcescens, IAM1184, 20 h): 1.56 µg/mL; MIC ([11]; Morganella morganii, IFO3848, 20 h): 0.1 µg/mL; MIC ([12]; Salmonella enterica, ENTERITIDIS, 20 h): 0.78 µg/mL; MIC ([13]; Staphylococcus epidermidis, IAM1296, 20 h): 1.56 µg/mL
2 | CC1CC(=O)c2c(N3CCN(C)CC3)c(F)cc3c(=O)c(C(=O)O)cn1c23.Cl.O (single isomer, unassigned; (+)) [Present compound, (+)-9-fluoro-5-methyl-8-(4-methyl-1-piperazinyl)-6,7-dihydro-1,7-dioxo-1H,5H-benzo[ij]quinolizine-2-carboxylic acid hydrochloride monohydrate] | ~180 | 0.05 | 0.10 | 0.78 | 0.10 | ≤ 0.025 | 0.20 | 0.78 | 0.10 | 0.39 | ≤ 0.025 | 0.20 | 0.39 | solubility relative to the racemate ([1]; versus racemate): about 25 times; antibacterial activity relative to the racemate (compound [I]) [14]: about twice as potent
3 | CC1CC(=O)c2c(N3CCN(C)CC3)c(F)cc3c(=O)c(C(=O)O)cn1c23.Cl.O (single isomer, unassigned; (-)) [(-)-isomer, (-)-9-fluoro-5-methyl-8-(4-methyl-1-piperazinyl)-6,7-dihydro-1,7-dioxo-1H,5H-benzo[ij]quinolizine-2-carboxylic acid hydrochloride monohydrate] |  | 1.56 | 3.13 | > 100 | 0.78 | 0.78 | 25 | 12.5 | 3.13 | 3.13 | 0.78 | 1.56 | 50 | 
